# Measurements reported in patent US20200170975A1 (Strongbridge Dublin Limited, priority 2018, published 2020).
# Where two headings read alike, the source gives them in different places.
# Legend:
# MATE1 = biological target: T1, MATE1 (Homo sapiens, UniProt Q96FL8); settings: for % control / Background corrected uptake rate: HEK293 cells; for Uptake, MATE1 (Average ± SD): MATE1 HEK293 cells; for Uptake, Control (Average ± SD): control HEK293 cells
# T1 sequence (Q96FL8 1-570): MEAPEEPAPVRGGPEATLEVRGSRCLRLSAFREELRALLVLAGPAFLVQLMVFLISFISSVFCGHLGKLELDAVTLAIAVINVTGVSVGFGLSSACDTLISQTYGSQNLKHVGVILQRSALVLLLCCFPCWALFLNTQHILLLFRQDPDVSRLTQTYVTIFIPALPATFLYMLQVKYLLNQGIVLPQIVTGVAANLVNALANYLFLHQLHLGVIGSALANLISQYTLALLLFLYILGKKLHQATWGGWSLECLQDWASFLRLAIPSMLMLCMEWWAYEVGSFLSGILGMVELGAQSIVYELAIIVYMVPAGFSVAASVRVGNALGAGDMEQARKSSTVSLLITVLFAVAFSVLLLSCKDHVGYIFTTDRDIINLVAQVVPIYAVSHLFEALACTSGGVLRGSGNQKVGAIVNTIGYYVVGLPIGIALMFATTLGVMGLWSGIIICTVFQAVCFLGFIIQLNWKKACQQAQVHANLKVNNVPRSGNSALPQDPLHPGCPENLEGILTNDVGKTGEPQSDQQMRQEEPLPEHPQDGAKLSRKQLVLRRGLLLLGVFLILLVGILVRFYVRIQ
# Protocol: (§1) [^14C]-Metformin (1 mM) was provided as a solid and was prepared in Hank's balanced salt solution (HBSS).
# (§2) Cells were plated onto standard 24-well tissue culture plates in cell culture medium 1 to 3 days before the experiment. MATE1 and MATE2-K and control cells were incubated with butyric acid (10 mM) for 24 hours before the experiment to inhibit suppression of the transporter.
# MATE2-K = MATE2-K (Homo sapiens, UniProt Q86VL8); settings: for Uptake, MATE2-K (Average ± SD): MATE2-K HEK293 cells; for Uptake, MATE2-K (Average ± SD) / % control / Background corrected uptake rate / Uptake, Control (Average ± SD): [14C]-Metformin 10 μM; for Uptake, Control (Average ± SD): control HEK293 cells
# Chain of MATE2-K (Q86VL8 1-566 isoform Q86VL8-3): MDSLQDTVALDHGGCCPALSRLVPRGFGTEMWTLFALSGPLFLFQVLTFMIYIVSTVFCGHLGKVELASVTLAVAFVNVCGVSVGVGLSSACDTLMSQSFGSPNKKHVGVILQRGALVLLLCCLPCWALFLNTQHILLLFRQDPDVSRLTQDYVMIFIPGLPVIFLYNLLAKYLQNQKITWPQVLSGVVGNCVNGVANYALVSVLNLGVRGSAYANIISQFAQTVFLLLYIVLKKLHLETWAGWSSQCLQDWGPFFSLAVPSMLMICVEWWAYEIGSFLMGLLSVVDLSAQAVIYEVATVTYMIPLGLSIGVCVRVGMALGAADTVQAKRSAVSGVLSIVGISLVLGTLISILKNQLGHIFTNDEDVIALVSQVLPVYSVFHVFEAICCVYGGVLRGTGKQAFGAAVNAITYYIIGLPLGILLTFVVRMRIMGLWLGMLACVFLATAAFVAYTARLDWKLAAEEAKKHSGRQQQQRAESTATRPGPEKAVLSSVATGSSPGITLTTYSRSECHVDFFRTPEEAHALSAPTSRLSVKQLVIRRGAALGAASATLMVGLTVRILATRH
# Protocol: as §1, §2
# OCT1 = biological target: T2, OCT1 (Homo sapiens, UniProt O15245); settings: for Uptake, OCT1 (Average ± SD): OCT1 HEK293 cells; for Uptake, OCT1 (Average ± SD) / % control / Background corrected uptake rate / Uptake, Control (Average ± SD): [14C]-TEA bromide 5 μM; for Uptake, Control (Average ± SD): control HEK293 cells
# T2 sequence (O15245 1-554): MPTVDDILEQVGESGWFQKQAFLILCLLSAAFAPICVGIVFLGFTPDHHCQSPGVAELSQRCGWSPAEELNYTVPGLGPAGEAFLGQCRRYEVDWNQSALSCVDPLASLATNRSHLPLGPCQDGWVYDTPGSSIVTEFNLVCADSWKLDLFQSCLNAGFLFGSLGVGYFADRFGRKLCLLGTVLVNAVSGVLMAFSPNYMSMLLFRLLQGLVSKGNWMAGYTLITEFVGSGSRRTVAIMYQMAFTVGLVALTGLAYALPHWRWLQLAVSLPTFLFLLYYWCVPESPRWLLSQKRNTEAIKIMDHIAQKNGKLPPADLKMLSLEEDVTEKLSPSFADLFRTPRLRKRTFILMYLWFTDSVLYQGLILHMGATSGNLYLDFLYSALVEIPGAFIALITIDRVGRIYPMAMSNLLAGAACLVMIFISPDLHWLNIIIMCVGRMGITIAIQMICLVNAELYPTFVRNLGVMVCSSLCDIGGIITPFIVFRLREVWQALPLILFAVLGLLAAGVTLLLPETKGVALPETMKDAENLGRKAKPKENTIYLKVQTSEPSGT
structure (smiles),measurement,setting,value
"NS(=O)(=O)c1cc(Cl)c(Cl)c(S(N)(=O)=O)c1 [Dichlorphenamide, 4,5-dichloro-1,3-benzenedisulfonamide]",IC50,MATE1,> 1000 µM
same,% control,MATE1; inhibitor 1 μm,104%
same,Background corrected uptake rate,MATE1; inhibitor 1 μm,85.8 pmol/mg/min
same,% control,MATE1; inhibitor 3 μm,95.2%
same,Background corrected uptake rate,MATE1; inhibitor 3 μm,78.8 pmol/mg/min
same,% control,MATE1; inhibitor 10 μm,96.4%
same,Background corrected uptake rate,MATE1; inhibitor 10 μm,79.8 pmol/mg/min
same,% control,MATE1; inhibitor 30 μm,103%
same,Background corrected uptake rate,MATE1; inhibitor 30 μm,85.0 pmol/mg/min
same,% control,MATE1; inhibitor 100 μm,99.8%
same,Background corrected uptake rate,MATE1; inhibitor 100 μm,82.6 pmol/mg/min
same,% control,MATE1; inhibitor 300 μm,94.7%
same,Background corrected uptake rate,MATE1; inhibitor 300 μm,78.4 pmol/mg/min
same,% control,MATE1; inhibitor 1000 μm,90.3%
same,Background corrected uptake rate,MATE1; inhibitor 1000 μm,74.7 pmol/mg/min
same,"Uptake, MATE1 (Average ± SD)",MATE1; inhibitor 1 μm,436 ± 23 pmol/mg protein
same,"Uptake, MATE1 (Average ± SD)",MATE1; inhibitor 3 μm,401 ± 7 pmol/mg protein
same,"Uptake, MATE1 (Average ± SD)",MATE1; inhibitor 10 μm,406 ± 12 pmol/mg protein
same,"Uptake, MATE1 (Average ± SD)",MATE1; inhibitor 30 μm,432 ± 10 pmol/mg protein
same,"Uptake, MATE1 (Average ± SD)",MATE1; inhibitor 100 μm,421 ± 17 pmol/mg protein
same,"Uptake, MATE1 (Average ± SD)",MATE1; inhibitor 300 μm,398 ± 17 pmol/mg protein
same,"Uptake, MATE1 (Average ± SD)",MATE1; inhibitor 1000 μm,379 ± 13 pmol/mg protein
same,"Uptake, Control (Average ± SD)",MATE1; inhibitor 1 μm,6.66 ± 1.31 pmol/mg protein
same,"Uptake, Control (Average ± SD)",MATE1; inhibitor 3 μm,6.75 ± 1.65 pmol/mg protein
same,"Uptake, Control (Average ± SD)",MATE1; inhibitor 10 μm,7.43 ± 1.34 pmol/mg protein
same,"Uptake, Control (Average ± SD)",MATE1; inhibitor 30 μm,6.79 ± 0.89 pmol/mg protein
same,"Uptake, Control (Average ± SD)",MATE1; inhibitor 100 μm,7.52 ± 0.96 pmol/mg protein
same,"Uptake, Control (Average ± SD)",MATE1; inhibitor 300 μm,5.56 ± 0.16 pmol/mg protein
same,"Uptake, Control (Average ± SD)",MATE1; inhibitor 1000 μm,5.52 ± 0.21 pmol/mg protein
same,IC50,"MATE1; human, pH 8.5",> 1000 µM
same,IC50,MATE2-K,> 1000 µM
same,"Uptake, MATE2-K (Average ± SD)",MATE2-K; inhibitor 1 μM,149 ± 29 pmol/mg protein
same,"Uptake, MATE2-K (Average ± SD)",MATE2-K; inhibitor 3 μM,159 ± 19 pmol/mg protein
same,"Uptake, MATE2-K (Average ± SD)",MATE2-K; inhibitor 10 μM,113 ± 8 pmol/mg protein
same,"Uptake, MATE2-K (Average ± SD)",MATE2-K; inhibitor 30 μM,124 ± 36 pmol/mg protein
same,"Uptake, MATE2-K (Average ± SD)",MATE2-K; inhibitor 100 μM,137 ± 15 pmol/mg protein
same,"Uptake, MATE2-K (Average ± SD)",MATE2-K; inhibitor 300 μM,166 ± 16 pmol/mg protein
same,"Uptake, MATE2-K (Average ± SD)",MATE2-K; inhibitor 1000 μM,106 ± 29 pmol/mg protein
same,% control,MATE2-K; inhibitor 1 μM,101%
same,Background corrected uptake rate,MATE2-K; inhibitor 1 μM,28.0 pmol/mg/min
same,% control,MATE2-K; inhibitor 3 μM,108%
same,Background corrected uptake rate,MATE2-K; inhibitor 3 μM,29.9 pmol/mg/min
same,% control,MATE2-K; inhibitor 10 μM,76.1%
same,Background corrected uptake rate,MATE2-K; inhibitor 10 μM,21.0 pmol/mg/min
same,% control,MATE2-K; inhibitor 30 μM,83.7%
same,Background corrected uptake rate,MATE2-K; inhibitor 30 μM,23.1 pmol/mg/min
same,% control,MATE2-K; inhibitor 100 μM,92.4%
same,Background corrected uptake rate,MATE2-K; inhibitor 100 μM,25.5 pmol/mg/min
same,% control,MATE2-K; inhibitor 300 μM,114%
same,Background corrected uptake rate,MATE2-K; inhibitor 300 μM,31.4 pmol/mg/min
same,% control,MATE2-K; inhibitor 1000 μM,73.2%
same,Background corrected uptake rate,MATE2-K; inhibitor 1000 μM,20.2 pmol/mg/min
same,"Uptake, Control (Average ± SD)",MATE2-K; inhibitor 1 μM,9.21 ± 0.93 pmol/mg protein
same,"Uptake, Control (Average ± SD)",MATE2-K; inhibitor 3 μM,9.44 ± 2.27 pmol/mg protein
same,"Uptake, Control (Average ± SD)",MATE2-K; inhibitor 10 μM,8.28 ± 1.46 pmol/mg protein
same,"Uptake, Control (Average ± SD)",MATE2-K; inhibitor 30 μM,8.51 ± 1.05 pmol/mg protein
same,"Uptake, Control (Average ± SD)",MATE2-K; inhibitor 100 μM,9.21 ± 1.52 pmol/mg protein
same,"Uptake, Control (Average ± SD)",MATE2-K; inhibitor 300 μM,8.86 ± 0.93 pmol/mg protein
same,"Uptake, Control (Average ± SD)",MATE2-K; inhibitor 1000 μM,5.13 ± 0.40 pmol/mg protein
same,IC50,"MATE2-K; human, pH 8.5",> 1000 µM
same,"Uptake, OCT1 (Average ± SD)",OCT1; inhibitor 1 μm,121 ± 11 pmol/mg protein
same,"Uptake, OCT1 (Average ± SD)",OCT1; inhibitor 3 μm,125 ± 5 pmol/mg protein
same,"Uptake, OCT1 (Average ± SD)",OCT1; inhibitor 10 μm,111 ± 4 pmol/mg protein
same,"Uptake, OCT1 (Average ± SD)",OCT1; inhibitor 30 μm,122 ± 14 pmol/mg protein
same,"Uptake, OCT1 (Average ± SD)",OCT1; inhibitor 100 μm,128 ± 6 pmol/mg protein
same,"Uptake, OCT1 (Average ± SD)",OCT1; inhibitor 300 μm,130 ± 10 pmol/mg protein
same,"Uptake, OCT1 (Average ± SD)",OCT1; inhibitor 1000 μm,77.9 ± 3.0 pmol/mg protein
same,% control,OCT1; inhibitor 1 μm,98.6%
same,Background corrected uptake rate,OCT1; inhibitor 1 μm,7.76 pmol/mg/min
same,% control,OCT1; inhibitor 3 μm,102%
same,Background corrected uptake rate,OCT1; inhibitor 3 μm,8.07 pmol/mg/min
same,% control,OCT1; inhibitor 10 μm,90.6%
same,Background corrected uptake rate,OCT1; inhibitor 10 μm,7.13 pmol/mg/min
same,% control,OCT1; inhibitor 30 μm,99.7%
same,Background corrected uptake rate,OCT1; inhibitor 30 μm,7.85 pmol/mg/min
same,% control,OCT1; inhibitor 100 μm,105%
same,Background corrected uptake rate,OCT1; inhibitor 100 μm,8.26 pmol/mg/min
same,% control,OCT1; inhibitor 300 μm,107%
same,Background corrected uptake rate,OCT1; inhibitor 300 μm,8.40 pmol/mg/min
same,% control,OCT1; inhibitor 1000 μm,63.5%
same,Background corrected uptake rate,OCT1; inhibitor 1000 μm,5.00 pmol/mg/min
same,"Uptake, Control (Average ± SD)",OCT1; inhibitor 1 μm,4.28 ± 1.48 pmol/mg protein
same,"Uptake, Control (Average ± SD)",OCT1; inhibitor 3 μm,4.44 ± 1.97 pmol/mg protein
same,"Uptake, Control (Average ± SD)",OCT1; inhibitor 10 μm,4.28 ± 0.92 pmol/mg protein
same,"Uptake, Control (Average ± SD)",OCT1; inhibitor 30 μm,3.88 ± 0.48 pmol/mg protein
same,"Uptake, Control (Average ± SD)",OCT1; inhibitor 100 μm,4.12 ± 0.73 pmol/mg protein
same,"Uptake, Control (Average ± SD)",OCT1; inhibitor 300 μm,3.88 ± 1.11 pmol/mg protein
same,"Uptake, Control (Average ± SD)",OCT1; inhibitor 1000 μm,2.99 ± 1.46 pmol/mg protein
same,IC50,"OCT1; human, pH 7.4",> 1000 µM
